Measurements: patent US20110105436A1, “HETEROARYL COMPOUNDS, COMPOSITIONS, AND METHODS OF USE IN CANCER TREATMENT” (AUCKLAND UNISERVICES LIMITED, priority 2008, published 2011)

How the values were obtained:
[1] = tested on: RCC4 cells; experiment: XTT assay in VHL-deficient RCC4 cells; format: cell-based
Procedure, shortened: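 RCC4 cells with and without VHL seeded at 5000/well, then exposed next day to serially diluted compound (DMSO vehicle) for four days. Viability read by XTT (0.3 mg/ml) with PMS, 1-2 h at 37° C, absorbance at 450 nm.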

[2] = tested on: RCC4, RCC4/VHL, SN12C and SN12C-VHL shRNA cells; experiment: Vacuole formation by light and time-lapse microscopy; format: cell-based
Method: A. Phase contrast pictures of VHL-deficient RCC4 and SN12C-VHL shRNA cells and VHL-positive cells RCC4 and SN12C after 20 hrs of 1.25 μM STF-62247. B. Immunostaining for LC3 following STF-62247 treatment at 1.25 μM for 20 hrs with or without 2 mM of 3-MA in RCC4 with and without VHL cells. After treatment, cells were fixed, permeabilized and processed for the detection of punctuate staining by indirect immunofluorescence. C. Autophagic vacuoles stained with monodansylcadaverine (MDC). After STF-62247 treatment in the same conditions, MDC was added for the last 10 minutes. Cells were fixed, washed with PBS and observed directly under microscope. D. Western blot for LC3 in RCC4, RCC4/VHL, SN12C, and SN12C-VHL shRNA cells after STF-62247 treatment with or without 3-MA. Nutrient starvation (EBSS) is used as positive control. […] Viability is measured by trypan blue exclusion assay and is represented by the average of three different experiments in duplicate as the percent of treated on untreated cells. […]
A. RCC4 and RCC4/VHL were treated with 1.25 μM of each 19 analogs for 20 hours and the presence of vacuoles was examined under light microscopy. […] Acidic vesicle organelles (AVO) measured by FACS analysis in cells treated with 1.25 μM of STF-62247 or with compounds 21, 15, 25, 47, and 53 and stained with acridine orange.

[3] = tested on: yeast deletion strains; experiment: Killing curves of yeast deletion strains; format: cell-based, S. cerevisiae
From the text: Screen in yeast and killing curves. Genotypes of the parental yeast strain BY4743, construction of the homozygous diploid deletion strains, and construction of the homozygous diploid deletion pool have been described previously (Thomas, G. V., et al., Nat. Med. 2006, 12, 122). A mutant pool of 4728 nonessential homozygous diploid deletion strains was used. The parental diploid strain BY4743 was used as control in survival and complementation assays. […]
A. Killing curves for 8 deletion yeast strains. Wild-type, ALG5, APS1, CLA4, DRS2, OSH3, VPS20, VPS25, YPT31 were incubated with STF-62247 (0-100 μM) for 1 hour and colony formation was evaluated after two days. Each point of the survival is calculated by the average of two different experiments in triplicate and as the percent of treated on untreated plate. B. Quantitative real time PCR for CHMP6, PAK2, RAB11a, OSBP3 and ALG5 in RCC4 and RCC4/VHL. Histogram is calculated by the average of three different experiments in triplicate as the percent of RCC4/VHL on RCC4 cells. […] Colony formation was evaluated as described before. *p<0.05 represents the difference between VHL cells and VHL with siRNA in presence of 5 μM of STF-62247.

Cc1cccc(Nc2nc(-c3ccncc3)cs2)c1 [Compound 5, N-(3-Methylphenyl)-4-(4-pyridinyl)-1,3-thiazol-2-amine]
IC50 ([1]; Homo sapiens, 96 h, Table 1, XTT assay, VHL-deficient RCC4 cells, four days): 2100 nM | viability in a short term assay ([1]; XTT, 0-40 μM, FIG. 7B): decreases the viability of VHL-deficient cells in a short term assay | vacuole formation ([2]; 1.25 μM, 20 hrs, FIG. 2A): accumulated intracytoplasmic vacuoles characteristic of cells undergoing autophagy | time of appearance of vacuoles after addition ([2]; time-lapse for 48 hours, RCC cells with and without VHL): 3 h | sensitivity of yeast deletion strain ([3]; ATG8 deletion strain, data not shown): did not exhibit sensitivity to STF-62247 | toxicity in yeast deletion strains ([3]; CLA4, VPS20, ALG5, OSH3 and YPT31 deletion strains, 0-100 μM, 1 h): significant toxicity in response to STF-62247
